Laboratory results as given in US9169254B2, “Spiroimidazolone derivative” (Chugai Seiyaku Kabushiki Kaisha, priority 2009, dated 2015).
Where a name gives a salt, the structure may show the parent alone.

Each compound was assayed against T1, human PTH1 receptor (Homo sapiens, UniProt Q03431) (assay: In vitro cAMP signal activity in HKRK-B7 cells (LLC-PK1 cells overexpressing the human PTH1 receptor)). Settings: HKRK-B7 cells; compound at 1×10^−3 M; cAMP produced as percentage of that produced by hPTH(1-34) at 100 nM.
T1 sequence (Q03431 27-593): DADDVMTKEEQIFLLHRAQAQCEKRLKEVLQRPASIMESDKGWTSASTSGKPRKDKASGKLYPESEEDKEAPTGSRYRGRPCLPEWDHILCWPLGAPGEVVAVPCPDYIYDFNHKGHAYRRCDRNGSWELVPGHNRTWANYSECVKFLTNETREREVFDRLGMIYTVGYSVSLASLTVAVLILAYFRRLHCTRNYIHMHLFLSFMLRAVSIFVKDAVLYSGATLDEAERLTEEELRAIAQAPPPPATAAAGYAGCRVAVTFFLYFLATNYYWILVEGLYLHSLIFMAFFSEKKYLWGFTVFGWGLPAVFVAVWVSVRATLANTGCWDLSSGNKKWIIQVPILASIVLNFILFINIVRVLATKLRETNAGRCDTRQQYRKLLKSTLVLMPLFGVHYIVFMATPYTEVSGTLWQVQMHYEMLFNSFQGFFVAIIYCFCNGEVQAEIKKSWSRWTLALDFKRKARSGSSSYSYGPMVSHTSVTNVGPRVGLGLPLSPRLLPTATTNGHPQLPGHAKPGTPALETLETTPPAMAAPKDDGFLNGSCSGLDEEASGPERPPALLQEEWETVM
Type: cell-based

Row | SMILES | cAMP production activity (%)
1 | Cc1cc(N2C(=O)CNC2=O)ccc1CCS(=O)(=O)N1CCC2(CC1)N=C(C1CCC(CCC(F)(F)F)CC1)NC2=O (stereo not shown) [Compound 943, 3-[3-Methyl-4-(2-{4-oxo-2-[4-(3,3,3-trifluoro-propyl)-cyclohexyl]-1,3,8-triaza-spiro[4.5]dec-1-ene-8-sulfonyl}-ethyl)-phenyl]-imidazolidine-2,4-dione] | 74%
2 | CCOc1cc(NC(C)=O)ccc1CCS(=O)(=O)N1CCC2(CC1)N=C(C1CCC(C)CC1)NC2=O (stereo not shown) [Compound 751, N-(3-ethoxy-4-{2-[2-(4-methyl-cyclohexyl)-4-oxo-1,3,8-triaza-spiro[4.5]dec-1-ene-8-sulfonyl]-ethyl}-phenyl)-acetamide] | 83%
3 | Cc1cc(N(C)C(N)=O)cc(C)c1CCS(=O)(=O)N1CCC2(CC1)N=C(CCCCCCCCCN)NC2=O [Compound 1324, 1-(4-{2-[2-(9-Amino-nonyl)-4-oxo-1,3,8-triaza-spiro[4.5]dec-1-ene-8-sulfonyl]-ethyl}-3,5-dimethyl-phenyl)-1-methyl-urea] | 1.0%
4 | O=C1NC(C2CCC(C(F)(F)F)CC2)=NC12CCN(S(=O)(=O)CCc1cccc3ccccc13)CC2 (stereo not shown) [Compound 37, 8-(2-naphthalen-1-yl-ethanesulfonyl)-2-(4-trifluoromethyl-cyclohexyl)-1,3,8-triaza-spiro[4.5]dec-1-en-4-one] | 54%
5 | Cc1cc2ccc1CCS(=O)(=O)N1CCC3(CC1)N=C(NC3=O)c1cc(cc(C(F)(F)F)c1)OCCC/C=C/COCCN(C)C2=O [Compound 1436] | 54%
6 | Cc1cc(C(=O)N2CCN(C)CC2)ccc1/C=C/S(=O)(=O)N1CCC2(CC1)N=C(c1cccc(OC(F)(F)F)c1)NC2=O [Compound 527, 8-{(E)-2-[2-methyl-4-(4-methyl-piperazine-1-carbonyl)-phenyl]-ethenesulfonyl}-2-(3-trifluoromethoxy-phenyl)-1,3,8-triaza-spiro[4.5]dec-1-en-4-one] | 93%
7 | Cc1cc(N(C)C(N)=O)cc(C)c1CCS(=O)(=O)N1CCC2(CC1)N=C(c1ccc(F)c(OC(F)(F)F)c1)NC2=O [Compound 1028, 1-(4-{2-[2-(4-Fluoro-3-trifluoromethoxy-phenyl)-4-oxo-1,3,8-triaza-spiro[4.5]dec-1-ene-8-sulfonyl]-ethyl}-3,5-dimethyl-phenyl)-1-methyl-urea] | 75%
8 | COCCCCCCCC1=NC2(CCN([S@TB18](=O)(=O)/C=C/c3c(C)cc(N(C)C(N)=O)cc3C)CC2)C(=O)N1 [Compound 1123, 1-(4-{(E)-2-[2-(7-methoxy-heptyl)-4-oxo-1,3,8-triaza-spiro[4.5]dec-1-ene-8-sulfonyl]-vinyl}-3,5-dimethyl-phenyl)-1-methyl-urea] | 122%
9 | CN(C(=O)c1cccc(C2=NC3(CCN(S(=O)(=O)c4cccc(Cl)c4)CC3)C(=O)N2)c1)c1ccccc1 [Compound 349, 3-[8-(3-chloro-benzenesulfonyl)-4-oxo-1,3,8-triaza-spiro[4.5]dec-1-en-2-yl]-N-methyl-N-phenyl-benzamide] | 11%
10 | Cc1cc(N(C(N)=O)C(C)C)cc(C)c1/C=C/S(=O)(=O)N1CCC2(CC1)N=C(C1CCC(C)CC1)NC2=O (stereo not shown) [Compound 726, 1-(3,5-Dimethyl-4-{(E)-2-[2-(4-methyl-cyclohexyl)-4-oxo-1,3,8-triaza-spiro[4.5]dec-1-ene-8-sulfonyl]-vinyl}-phenyl)-1-isopropyl-urea] | 75%
11 | Cc1cc(N(C)C(N)=O)cc(C)c1/C=C/S(=O)(=O)N1CCC2(CC1)N=C(c1ccc(CCCC(F)(F)F)cc1)NC2=O [Compound 1088, 1-[3,5-Dimethyl-4-((E)-2-{4-oxo-2-[4-(4,4,4-trifluoro-butyl)-phenyl]-1,3,8-triaza-spiro[4.5]dec-1-ene-8-sulfonyl}-vinyl)-phenyl]-1-methyl-urea] | 95%
12 | O=C(O)Cn1ccc2c(/C=C/S(=O)(=O)N3CCC4(CC3)N=C(C3CCCCC3)NC4=O)cccc21 [Compound 1168, {4-[(E)-2-(2-Cyclohexyl-4-oxo-1,3,8-triaza-spiro[4.5]dec-1-ene-8-sulfonyl)-vinyl]-indol-1-yl}-acetic acid] | 27%
13 | CCCCCc1ccc(C2=NC3(CCN(S(=O)(=O)CCc4c(C)cc(N(C)C(N)=O)cc4C)CC3)C(=O)N2)cc1OC [Compound 1354, 1-(4-{2-[2-(3-methoxy-4-pentyl-phenyl)-4-oxo-1,3,8-triaza-spiro[4.5]dec-1-ene-8-sulfonyl]-ethyl}-3,5-dimethyl-phenyl)-1-methyl-urea] | 128%
14 | CCCCCCCCCC1=NC2(CCN(S(=O)(=O)CCc3c(C)cc(C(=O)N4CC(O)C4)cc3C)CC2)C(=O)N1 [Compound 985, 8-{2-[4-(3-hydroxy-azetidine-1-carbonyl)-2,6-dimethyl-phenyl]-ethanesulfonyl}-2-nonyl-1,3,8-triaza-spiro[4.5]dec-1-en-4-one] | 120%
15 | Cc1cc(N(C)C(N)=O)cc(C)c1CCS(=O)(=O)N1CCC2(CC1)N=C(C1CCC(=CCC(F)(F)F)CC1)NC2=O (stereo not shown) [Compound 939, 1-[3,5-Dimethyl-4-(2-{4-oxo-2-[4-(3,3,3-trifluoro-propylidene)-cyclohexyl]-1,3,8-triaza-spiro[4.5]dec-1-ene-8-sulfonyl}-ethyl)-phenyl]-1-methyl-urea] | 111%
16 | Cc1cc(NC(=O)[C@@H](N)CO)ccc1CCS(=O)(=O)N1CCC2(CC1)N=C(c1cccc(C(F)(F)F)c1)NC2=O [Compound 886, (S)-2-amino-3-hydroxy-N-(3-methyl-4-{2-[4-oxo-2-(3-trifluoromethyl-phenyl)-1,3,8-triaza-spiro[4.5]dec-1-ene-8-sulfonyl]-ethyl}-phenyl)-propionamide] | 68%
17 | COc1cc(N(C)C(N)=O)cc(C)c1/C=C/S(=O)(=O)N1CCC2(CC1)N=C(C1CCC(C)CC1)NC2=O (stereo not shown) [Compound 728, 1-(3-Methoxy-5-methyl-4-{(E)-2-[2-(4-methyl-cyclohexyl)-4-oxo-1,3,8-triaza-spiro[4.5]dec-1-ene-8-sulfonyl]-vinyl}-phenyl)-1-methyl-urea] | 87%
18 | Cc1cc(C(=O)N2CCNC(=O)C2)cc(C)c1/C=C/S(=O)(=O)N1CCC2(CC1)N=C(c1ccc(F)c(C(F)(F)F)c1)NC2=O [Compound 968, 8-{(E)-2-[2,6-Dimethyl-4-(3-oxo-piperazine-1-carbonyl)-phenyl]-ethenesulfonyl}-2-(4-fluoro-3-trifluoromethyl-phenyl)-1,3,8-triaza-spiro[4.5]dec-1-en-4-one] | 69%
19 | Cc1cc(NS(N)(=O)=O)ccc1CCS(=O)(=O)N1CCC2(CC1)N=C(c1cccc(OC(F)(F)F)c1)NC2=O [Compound 874, N-(3-methyl-4-{2-[4-oxo-2-(3-trifluoromethoxy-phenyl)-1,3,8-triaza-spiro[4.5]dec-1-ene-8-sulfonyl]-ethyl}-phenyl)-sulfamide] | 61%
20 | CC(=O)Nc1ccc(CCS(=O)(=O)N2CCC3(CC2)N=C([C@H]2CC[C@@H](OCCCF)CC2)NC3=O)c(C)c1 [Compound 914, N-[4-(2-{2-[4-(3-fluoro-propoxy)-cyclohexyl]-4-oxo-1,3,8-triaza-spiro[4.5]dec-1-ene-8-sulfonyl}-ethyl)-3-methyl-phenyl]-acetamide] | 68%
21 | Cc1cc(OC2CCNCC2)ccc1CCS(=O)(=O)N1CCC2(CC1)N=C(c1cccc(OC(F)(F)F)c1)NC2=O [Compound 889, 8-{2-[2-Methyl-4-(piperidin-4-yloxy)-phenyl]-ethanesulfonyl}-2-(3-trifluoromethoxy-phenyl)-1,3,8-triaza-spiro[4.5]dec-1-en-4-one hydrochloride] | 26%
22 | CC(=O)Nc1ccc(CCS(=O)(=O)N2CCC3(CC2)N=C(C2CCCCC2)NC3=O)cc1 [Compound 167, N-{4-[2-(2-Cyclohexyl-4-oxo-1,3,8-triaza-spiro[4.5]dec-1-ene-8-sulfonyl)-ethyl]-phenyl}-acetamide] | 44%
23 | Cc1cc(C(=O)N2CCC(O)CC2)cc(C)c1CCS(=O)(=O)N1CCC2(CC1)N=C(c1ccc(F)c(C(F)(F)F)c1)NC2=O [Compound 797, 2-(4-fluoro-3-trifluoromethyl-phenyl)-8-{2-[4-(4-hydroxy-piperidine-1-carbonyl)-2,6-dimethyl-phenyl]-ethanesulfonyl}-1,3,8-triaza-spiro[4.5]dec-1-en-4-one] | 88%
24 | CC(C)(C)OC(=O)N1CCCC(C2=NC3(CCN(S(=O)(=O)CCc4cccc5ccccc45)CC3)C(=O)N2)C1 (stereo not shown) [Compound 38, 3-[8-(2-Naphthalen-1-yl-ethanesulfonyl)-4-oxo-1,3,8-triaza-spiro[4.5]dec-1-en-2-yl]-piperidine-1-carboxylic acid tert-butyl ester] | 52%
25 | O=C1NC(C2CCCCCC2)=NC12CCN(S(=O)(=O)/C=C/c1cccc3c1ccn3C[C@H](O)CO)CC2 [Compound 240, 2-Cycloheptyl-8-{(E)-2-[1-((S)-2,3-dihydroxy-propyl)-1H-indol-4-yl]-ethenesulfonyl}-1,3,8-triaza-spiro[4.5]dec-1-en-4-one] | 49%
